Experimental data taken from patent US20040219112A1, “Method of whitening teeth, tooth whitening composition and tooth whitening set” (priority 2001, published 2004).

How the values were obtained:
[1] = Whitening of extracted human tooth enclosed in PP non-woven sheet coated with gel of 50% whitening compound, L*a*b* (CIE) whiteness; design: key to Effect (3): whiteness (Δ|L|+Δ|b|) of the tooth / Effect (4): prolonged effect, whiteness (Δ|L|+Δ|b|) of the tooth: whiteness = Δ|L|+Δ|b| (CIE L*a*b*), change before vs after treatment; settings: gel of 50% compound; for Effect (4): prolonged effect, whiteness (Δ|L|+Δ|b|) of the tooth / Effect (3): whiteness (Δ|L|+Δ|b|) of the tooth: 0.5% jellan gum, 49.5% water; for Effect (4): prolonged effect, whiteness (Δ|L|+Δ|b|) of the tooth: measured after immersion in water (10 ml, 37° C.) for 1 hour; for Effect (3): whiteness (Δ|L|+Δ|b|) of the tooth: measured immediately after 1 hour at 37° C.; for Result (prolonged effect rating): rating of prolonged effect after 1 hour in water
Method: (§1) An experiment was conducted as follows with an extracted human tooth which had previously been examined for L*a*b* values (CIE). The tooth was enclosed in a sheet of non-woven fabric of PP coated with a gel composed of 50% of the whitening compound specified below, 0.5% of jellan gum, and 49.5% of water, and the resulting object was allowed to stand at 37° C. for 1 hour in a closed glass bottle. The tooth was examined again for L*a*b* values (CIE). The ΔL and Δb values measured before and after treatment were used to calculate the whiteness (Δ|L|+Δ|b|) of the tooth, which is a measure of the effect (3).
(§2) The tooth which had been processed as mentioned above was again allowed to stand at 37° C. for 1 hour in a closed glass bottle containing 10 ml of water at 37° C. Then, the tooth was examined again for L*a*b* values (CIE). The ΔL and Δb values measured before and after treatment were used to calculate the whiteness (Δ|L|+Δ|b|) of the tooth, which is a measure of the prolonged effect (4).

[2] = Whitening of extracted human tooth enclosed in absorbent cotton impregnated with liquid compound (100%), L*a*b* (CIE) whiteness; settings: compound conc. 100%; for Effect (2): prolonged effect, whiteness (Δ|L|+Δ|b|) of the tooth: measured after immersion in water (10 ml, 37° C.) for 1 hour; for Effect (1): whiteness (Δ|L|+Δ|b|) of the tooth: measured immediately after immersion in the compound for 1 hour at 37° C.; for Result (prolonged effect rating): rating of prolonged effect after 1 hour in water
Method: as §1, with “absorbent cotton impregnated” for “a sheet of non-woven fabric of PP coated”, “liquid” for “gel composed of 50% of the whitening”, “(in 100% concentration) shown” for “specified”, “below,” for “below, 0.5% of jellan gum, and 49.5% of water,”, “(1).” for “(3).”
as §2, with “(2).” for “(4).”

Molecule	Effect (4): prolonged effect, whiteness (Δ|L|+Δ|b|) of the tooth [1]	Effect (3): whiteness (Δ|L|+Δ|b|) of the tooth [1]	Result (prolonged effect rating) [1]	Effect (2): prolonged effect, whiteness (Δ|L|+Δ|b|) of the tooth [2]	Effect (1): whiteness (Δ|L|+Δ|b|) of the tooth [2]	Result (prolonged effect rating) [2]
CC(O)CCO (stereo not drawn) [1,3-butylene glycol]	0.5	0.9	◯ (◯ denotes a prolonged effect with a value larger than 0.5)	5.6	11.3	⊚ (⊚ denotes a significant prolonged effect with a value larger than 1)
PEG #300	0.8	1.8	◯ (◯ denotes a prolonged effect with a value larger than 0.5)	3.7	10.7	⊚ (⊚ denotes a significant prolonged effect with a value larger than 1)
OCCO [Ethylene glycol]	0.7	1.6	◯ (◯ denotes a prolonged effect with a value larger than 0.5)	2.6	9.3	⊚ (⊚ denotes a significant prolonged effect with a value larger than 1)
Polyethylene glycol #200 [PEG #200]	0.9	0.6	◯ (◯ denotes a prolonged effect with a value larger than 0.5)	4.8	12.5	⊚ (⊚ denotes a significant prolonged effect with a value larger than 1)
OCCOCCO [Diethylene glycol]	1.1	1.3	⊚ (⊚ denotes a significant prolonged effect with a value larger than 1)	2.6	14.4	⊚ (⊚ denotes a significant prolonged effect with a value larger than 1)
CC(C)O [Isopropyl alcohol]	0.5	1.1	◯ (◯ denotes a prolonged effect with a value larger than 0.5)	8.3	15.8	⊚ (⊚ denotes a significant prolonged effect with a value larger than 1)
Polyethylene glycol #400 [PEG #400]	0.6	0.7	◯ (◯ denotes a prolonged effect with a value larger than 0.5)	1.5	8.1	⊚ (⊚ denotes a significant prolonged effect with a value larger than 1)
CCO [Ethanol]	1.9	1.5	⊚ (⊚ denotes a significant prolonged effect with a value larger than 1)	3.0	12.8	⊚ (⊚ denotes a significant prolonged effect with a value larger than 1)
Polyethylene glycol #600 [PEG #600]	0.8	0.7	◯ (◯ denotes a prolonged effect with a value larger than 0.5)	0.6	12.0	◯ (◯ denotes a prolonged effect with a value larger than 0.5)
CC(O)CO (stereo not drawn) [Propylene glycol]	1.0	1.0	⊚ (⊚ denotes a significant prolonged effect with a value larger than 1)	2.8	8.4	⊚ (⊚ denotes a significant prolonged effect with a value larger than 1)
